Assay results taken from patent publication US6667413B2, “Uracil compounds and use thereof” (Sumitomo Chemical Company, Limited, priority 1999, dated 2003).

How the values were obtained:
Format in all cases: in vivo
[1] = system: Johnsongrass (Sorghum halepense); assay: Test Example 6: foliar treatment, herbicidal activity index; set-up: key: 0: no or little difference in the degree of germination or growth between the treated and the untreated tested plants at the time of examination; 10: the test plants died complete or their germination or growth was completely inhibited; conditions: foliar spray, 4 days after application, index 0 to 10
Experimental: (§1) A plastic pot (27 cm×19 cm×7 cm) was filled with soil and then seeded with Johnsongrass (Sorghum halepense), Giant foxtail (Setaria faberi), barnyardgrass (Echinochloa crus-galli), large crabgrass (Digitaria sanguinalis), Broadleaf signalgrass (Brachiaria platyphylla) and wild oat (Avena fatua). These test plants were grown in a greenhouse for 25 days. After then, each of the compounds 3-11, 4-22, B and C was formulated into an emulsifiable concentrate according to Formulation Example 2 and then diluted to the prescribed amount with water containing a spreading agent and the dilution was uniformly sprayed over the foliage of the test plants with a sprayer at a rate of 1000 liters per hectare. After the application, the test plants were grown in the greenhouse for 4 days, and the herbicidal activity was examined. (In the Table 9, the test plants are shown as follows. Johnsongrass: J, Giant foxtail: GF, Barnyardgrass: B Large crabgrass: LC, Broadleaf signalgrass: BC wild oat: W

[2] = system: Giant foxtail (Setaria faberi); assay: as above; set-up: key: 0: no or little difference in the degree of germination or growth between the treated and the untreated tested plants at the time of examination; 10: the test plants died complete or their germination or growth was completely inhibited; conditions: foliar spray, 4 days after application, index 0 to 10
Experimental: as §1

[3] = system: barnyardgrass (Echinochloa crus-galli); assay: as above; set-up: key: 0: no or little difference in the degree of germination or growth between the treated and the untreated tested plants at the time of examination; 10: the test plants died complete or their germination or growth was completely inhibited; conditions: foliar spray, 4 days after application, index 0 to 10
Experimental: as §1

[4] = system: large crabgrass (Digitaria sanguinalis); assay: as above; set-up: key: 0: no or little difference in the degree of germination or growth between the treated and the untreated tested plants at the time of examination; 10: the test plants died complete or their germination or growth was completely inhibited; conditions: foliar spray, 4 days after application, index 0 to 10
Experimental: as §1

[5] = system: Broadleaf signalgrass (Brachiaria platyphylla); assay: as above; set-up: key: 0: no or little difference in the degree of germination or growth between the treated and the untreated tested plants at the time of examination; 10: the test plants died complete or their germination or growth was completely inhibited; conditions: foliar spray, 4 days after application, index 0 to 10
Experimental: as §1

wild oat (Avena fatua) = assay: as above; set-up: key: 0: no or little difference in the degree of germination or growth between the treated and the untreated tested plants at the time of examination; 10: the test plants died complete or their germination or growth was completely inhibited; conditions: foliar spray, 4 days after application, index 0 to 10
Experimental: as §1

[6] = system: velvetleaf (Abutilon theophrasti); assay: Test Example 2: soil surface treatment, herbicidal activity; conditions: sprayed over the surface of the soil, 500 g/ha, 7 days after application
Description: (§2) A cylindrical plastic pot having a diameter of 10 cm and a depth of 10 cm was filled with soil and then seeded with Ivyleaf morningglory (Ipomoea hederacea), velvetleaf (Abutilon theophrasti) and barnyardgrass (Echinochloa crus-galli). Then, each of the compounds 1-1,2-1 and 3-1 was formulated into an emulsifiable concentrate according to Formulation Example 2 and then diluted to the prescribed amount with water, and the dilution was uniformly sprayed over the surface of the soil with a sprayer at a rate of 1000 liters per hectare. After the application, the test plants were grown in the greenhouse for 7 days, and the herbicidal activity of the applied composition was examined.

[7] = system: Ivyleaf morningglory (Ipomoea hederacea); assay: as above; conditions: sprayed over the surface of the soil, 500 g/ha, 7 days after application
Description: as §2

[8] = system: barnyardgrass (Echinochloa crus-galli); assay: as above; conditions: sprayed over the surface of the soil, 500 g/ha, 7 days after application
Description: as §2

[9] = system: velvetleaf (Abutilon theophrasti); assay: Test Example 1: foliar treatment, herbicidal activity; conditions: foliar spray, 125 g/ha, 7 days after application
Experimental: (§3) A cylindrical plastic pot having a diameter of 10 cm and a depth of 10 cm was filled with soil and then seeded with Ivyleaf morningglory (Ipomoea hederacea), velvetleaf (Abutilon theophrasti), barnyardgrass (Echinochloa crus-galli) and blackgrass (Alopecurus myosuroides). These test plants were grown in a greenhouse for 9 days. Then, each of compounds 1-1,2-1, 3-1,3-2, 3-11 and 3-12 was formulated into an emulsifiable concentrate according to Formulation Example 2 and then diluted to the prescribed amount with water containing a spreading agent and the dilution was uniformly sprayed over the foliage of the test plants with a sprayer at a rate of 1000 liters per hectare After the application, the test plants were grown in the greenhouse for 7 days, and the herbicidal activity of the applied composition was determined.

[10] = system: Ivyleaf morningglory (Ipomoea hederacea); assay: as above; conditions: foliar spray, 125 g/ha, 7 days after application
Experimental: as §3

[11] = system: barnyardgrass (Echinochloa crus-galli); assay: as above; conditions: foliar spray, 125 g/ha, 7 days after application
Experimental: as §3

[12] = system: blackgrass (Alopecurus myosuroides); assay: as above; conditions: foliar spray, 125 g/ha, 7 days after application
Experimental: as §3

[13] = system: velvetleaf (Abutilon theophrasti); assay: Test Example 4: soil surface treatment, herbicidal activity; conditions: sprayed over the surface of the soil, 2000 g/ha, 7 days after application
Description: as §2, with “theophrasti),” for “theophrasti) and”, “crus-galli) and blackgrass (Alopecurus myosuroides).” for “crus-galli).”, “3-2,3-11, 3-12, 3-16, 3-20” for “1-1,2-1”, “3-198” for “3-1”

[14] = system: Ivyleaf morningglory (Ipomoea hederacea); assay: as above; conditions: sprayed over the surface of the soil, 2000 g/ha, 7 days after application
Description: as §2, with “theophrasti),” for “theophrasti) and”, “crus-galli) and blackgrass (Alopecurus myosuroides).” for “crus-galli).”, “3-2,3-11, 3-12, 3-16, 3-20” for “1-1,2-1”, “3-198” for “3-1”

[15] = system: barnyardgrass (Echinochloa crus-galli); assay: as above; conditions: sprayed over the surface of the soil, 2000 g/ha, 7 days after application
Description: as §2, with “theophrasti),” for “theophrasti) and”, “crus-galli) and blackgrass (Alopecurus myosuroides).” for “crus-galli).”, “3-2,3-11, 3-12, 3-16, 3-20” for “1-1,2-1”, “3-198” for “3-1”

[16] = system: blackgrass (Alopecurus myosuroides); assay: as above; conditions: sprayed over the surface of the soil, 2000 g/ha, 7 days after application
Description: as §2, with “theophrasti),” for “theophrasti) and”, “crus-galli) and blackgrass (Alopecurus myosuroides).” for “crus-galli).”, “3-2,3-11, 3-12, 3-16, 3-20” for “1-1,2-1”, “3-198” for “3-1”

COc1ccccc1Oc1cc(-n2c(=O)cc(C(F)(F)F)n(C)c2=O)c(F)cc1C#N [B, reference compound]
Herbicidal activity J ([1]; 0.33 g/ha): 2
Herbicidal activity J ([1]; 1 g/ha): 7
Herbicidal activity J ([1]; 3.3 g/ha): 7
Herbicidal activity GF ([2]; 0.33 g/ha): 3
Herbicidal activity GF ([2]; 1 g/ha): 5
Herbicidal activity GF ([2]; 3.3 g/ha): 7
Herbicidal activity B ([3]; 0.33 g/ha): 2
Herbicidal activity B ([3]; 1 g/ha): 6
Herbicidal activity B ([3]; 3.3 g/ha): 7
Herbicidal activity LC ([4]; 0.33 g/ha): 3
Herbicidal activity LC ([4]; 1 g/ha): 7
Herbicidal activity LC ([4]; 3.3 g/ha): 8
Herbicidal activity BC ([5]; 0.33 g/ha): 2
Herbicidal activity BC ([5]; 1 g/ha): 6
Herbicidal activity BC ([5]; 3.3 g/ha): 8
Herbicidal activity W (wild oat (Avena fatua); 0.33 g/ha): 2
Herbicidal activity W (wild oat (Avena fatua); 1 g/ha): 5
Herbicidal activity W (wild oat (Avena fatua); 3.3 g/ha): 7

COC(=O)c1ccccc1Oc1cc(-n2c(=O)cc(C(F)(F)F)n(C)c2=O)c(F)cc1C#N [C, reference compound]
Herbicidal activity J ([1]; 0.33 g/ha): 2
Herbicidal activity J ([1]; 1 g/ha): 4
Herbicidal activity J ([1]; 3.3 g/ha): 6
Herbicidal activity GF ([2]; 0.33 g/ha): 1
Herbicidal activity GF ([2]; 1 g/ha): 3
Herbicidal activity GF ([2]; 3.3 g/ha): 4
Herbicidal activity B ([3]; 0.33 g/ha): 1
Herbicidal activity B ([3]; 1 g/ha): 4
Herbicidal activity B ([3]; 3.3 g/ha): 6
Herbicidal activity LC ([4]; 0.33 g/ha): 2
Herbicidal activity LC ([4]; 1 g/ha): 3
Herbicidal activity LC ([4]; 3.3 g/ha): 5
Herbicidal activity BC ([5]; 0.33 g/ha): 2
Herbicidal activity BC ([5]; 1 g/ha): 3
Herbicidal activity BC ([5]; 3.3 g/ha): 6
Herbicidal activity W (wild oat (Avena fatua); 0.33 g/ha): 1
Herbicidal activity W (wild oat (Avena fatua); 1 g/ha): 3
Herbicidal activity W (wild oat (Avena fatua); 3.3 g/ha): 5

COC(=O)C(C)Oc1ccc(Oc2cc(-n3c(=O)cc(C(F)(F)F)n(C)c3=O)c(F)cc2Cl)cc1 (centres unmarked) [Compound 1-1, methyl 2-[4-{2-chloro-4-fluoro-5-[3-methyl-2,6-dioxo-4-(trifluoromethyl)-1,2,3,6-tetrahydropyrimidin-1-yl]phenoxy}phenoxy]propionate]
emergence of velvetleaf [6]: completely controlled
emergence of Ivyleaf morningglory [7]: completely controlled
emergence of barnyardgrass [8]: completely controlled
growth of velvetleaf [9]: completely controlled
growth of Ivyleaf morningglory [10]: completely controlled
growth of barnyardgrass [11]: completely controlled
growth of blackgrass [12]: completely controlled

COC(=O)C(C)Oc1cccc(Oc2cc(-n3c(=O)cc(C(F)(F)F)n(C)c3=O)c(F)cc2Cl)c1 (centres unmarked) [Compound 2-1, methyl 2-[3-{2-chloro-4-fluoro-5-[3-methyl-2,6-dioxo-4-(trifluoromethyl)-1,2,3,6-tetrahydropyrimidin-1-yl]phenoxy}phenoxy]propionate]
emergence of velvetleaf [6]: completely controlled
emergence of Ivyleaf morningglory [7]: completely controlled
emergence of barnyardgrass [8]: completely controlled
growth of velvetleaf [9]: completely controlled
growth of Ivyleaf morningglory [10]: completely controlled
growth of barnyardgrass [11]: completely controlled
growth of blackgrass [12]: completely controlled

CCOC(=O)C(C)Oc1ccccc1Oc1cc(-n2c(=O)cc(C(F)(F)F)n(C)c2=O)c(F)cc1Cl (centres unmarked) [Compound 3-2, Ethyl 2-[2-{2-chloro-4-fluoro-5-[3-methyl-2,6-dioxo-4-(trifluoromethyl)-1,2,3,6-tetrahydropyrimidin-1-yl]phenoxy}phenoxy]propionate]
growth of velvetleaf [9]: completely controlled
growth of Ivyleaf morningglory [10]: completely controlled
growth of barnyardgrass [11]: completely controlled
growth of blackgrass [12]: completely controlled
emergence of velvetleaf [13]: completely controlled
emergence of Ivyleaf morningglory [14]: completely controlled
emergence of barnyardgrass [15]: completely controlled
emergence of blackgrass [16]: completely controlled

COC(=O)COc1ccccc1Oc1cc(-n2c(=O)cc(C(F)(F)F)n(C)c2=O)c(F)cc1Cl [Compound 3-11, Methyl [2-{2-chloro-4-fluoro-5-[3-methyl-2,6-dioxo-4-(trifluoromethyl)-1,2,3,6-tetrahydropyrimidin-1-yl]phenoxy}phenoxy]acetate]
growth of velvetleaf [9]: completely controlled
growth of Ivyleaf morningglory [10]: completely controlled
growth of barnyardgrass [11]: completely controlled
growth of blackgrass [12]: completely controlled
emergence of velvetleaf [13]: completely controlled
emergence of Ivyleaf morningglory [14]: completely controlled
emergence of barnyardgrass [15]: completely controlled
emergence of blackgrass [16]: completely controlled
Herbicidal activity J ([1]; 0.33 g/ha): 8
Herbicidal activity J ([1]; 1 g/ha): 9
Herbicidal activity J ([1]; 3.3 g/ha): 10
Herbicidal activity GF ([2]; 0.33 g/ha): 8
Herbicidal activity GF ([2]; 1 g/ha): 9
Herbicidal activity GF ([2]; 3.3 g/ha): 9
Herbicidal activity B ([3]; 0.33 g/ha): 7
Herbicidal activity B ([3]; 1 g/ha): 8
Herbicidal activity B ([3]; 3.3 g/ha): 10
Herbicidal activity LC ([4]; 0.33 g/ha): 8
Herbicidal activity LC ([4]; 1 g/ha): 9
Herbicidal activity LC ([4]; 3.3 g/ha): 10
Herbicidal activity BC ([5]; 0.33 g/ha): 8
Herbicidal activity BC ([5]; 1 g/ha): 9
Herbicidal activity BC ([5]; 3.3 g/ha): 10
Herbicidal activity W (wild oat (Avena fatua); 0.33 g/ha): 8
Herbicidal activity W (wild oat (Avena fatua); 1 g/ha): 10
Herbicidal activity W (wild oat (Avena fatua); 3.3 g/ha): 10

CCOC(=O)COc1ccccc1Oc1cc(-n2c(=O)cc(C(F)(F)F)n(C)c2=O)c(F)cc1Cl [Compound 3-12, Ethyl [2-{2-chloro-4-fluoro-5-[3-methyl-2,6-dioxo-4-(trifluoromethyl)-1,2,3,6-tetrahydropyrimidin-1-yl]phenoxy}phenoxy]acetate]
growth of velvetleaf [9]: completely controlled
growth of Ivyleaf morningglory [10]: completely controlled
growth of barnyardgrass [11]: completely controlled
growth of blackgrass [12]: completely controlled
emergence of velvetleaf [13]: completely controlled
emergence of Ivyleaf morningglory [14]: completely controlled
emergence of barnyardgrass [15]: completely controlled
emergence of blackgrass [16]: completely controlled

COC(=O)COc1ccccc1Oc1cc(-n2c(=O)cc(C(F)(F)F)n(C)c2=O)c(F)cc1C#N [Compound 4-22]
Herbicidal activity J ([1]; 0.33 g/ha): 8
Herbicidal activity J ([1]; 1 g/ha): 8
Herbicidal activity J ([1]; 3.3 g/ha): 9
Herbicidal activity GF ([2]; 0.33 g/ha): 7
Herbicidal activity GF ([2]; 1 g/ha): 8
Herbicidal activity GF ([2]; 3.3 g/ha): 10
Herbicidal activity B ([3]; 0.33 g/ha): 8
Herbicidal activity B ([3]; 1 g/ha): 9
Herbicidal activity B ([3]; 3.3 g/ha): 9
Herbicidal activity LC ([4]; 0.33 g/ha): 9
Herbicidal activity LC ([4]; 1 g/ha): 9
Herbicidal activity LC ([4]; 3.3 g/ha): 9
Herbicidal activity BC ([5]; 0.33 g/ha): 8
Herbicidal activity BC ([5]; 1 g/ha): 8
Herbicidal activity BC ([5]; 3.3 g/ha): 9
Herbicidal activity W (wild oat (Avena fatua); 0.33 g/ha): 8
Herbicidal activity W (wild oat (Avena fatua); 1 g/ha): 9
Herbicidal activity W (wild oat (Avena fatua); 3.3 g/ha): 10
